Test results: patent publication US6387427B1, “Method of preservation of a food product” (Nestec S.A., priority 2000, dated 2002)

Assays:
Assay type in all cases: cell-based
[1] = system: challenge bacteria (L. monocytogenes, B. cereus, E. coli, S. typhimurium); assay: Challenge test in BHI broth, challenge bacteria overall; conditions: neutral pH (6.5 to 7.0) and 30° C.
Protocol: (§1) Commercial sodium acetate (Sigma) and the freeze-dried fermentate of the invention (pH 5.0) were tested in Brain Heart Infusion broth (BHI), using single and cocktail tests. BHI was added with:
(§2) (a) commercial sodium acetate at final concentrations of 0.25 and 0.5%;
(§3) (b) freeze dried fermentate (pH 5.0) at final concentrations of sodium acetate of 0.25 to 0.5%; and,
(§4) (c) a control sample consisted of BHI broth without sodium acetate.
(§5) For first samples, the pH of BHI broth with or without sodium acetate was adjusted to 5.6 with HCl (10%) and the samples filter-sterilized ([…], Millipore). For comparative samples, the pH was controlled at 7.0 and the sample filtered-sterilized.
(§6) The freeze-dried product was evaluated for its inhibitory actions against Gram-negative Gram-positive bacteria. Twenty-mL samples were inoculated with 10^4-10^5 cfu/mL of L. monocytogenes, B. cereus, E. coli, or S. typhimurium alone and combined. The samples were incubated at two conditions: at 30° C. for 24 h, and at 12° C. for 2 weeks.
(§7) The control samples consisted of samples with and without commercial sodium acetate.

[2] = system: Gram-negative bacterial cocktail (3 E. Coli strains and 3 Salmonella strains); assay: Challenge test in mashed potato, Gram-negative cocktail; conditions: 12° C.; for Microbial growth: mashed potato pH 5.6, 0.5%
Protocol: (§8) Five hundred grams of mashed potato were added to 500 g of distilled water and mixed thoroughly. The pH of the mixture was adjusted to pH 5.6 with 1N HCl. Three separate samples of 300 g of mashed potato were added with respectively, 0.5 % commercial sodium acetate, 0.5% of freeze dried fermentate and a control with no acetate. The three mashed potato samples (respectively with commercial acetate, fermentate and control) were heated at 70° C. for 5 min in a microwave and then dispatched aseptically in separate aliquots of 30 g each. The pH of all samples was checked before inoculation. Triplicate samples of each the three mashed potato aliquots were inoculated with 10^3-10^4 colony forming units per gram (cfu/g) of Gram-negative bacterial cocktail (3 E. Coli strains and 3 Salmonella strains), or L. monocytogenes cocktail and incubated at 12° C. for 2 weeks. Periodically, samples were withdrawn and bacterial counts were enumerated using BHI agar and incubated at 30° C. for 48 hours.
To confirm the effectiveness of the two sources of sodium acetate against Gram-negative bacteria, a cocktail of Gram-negative bacteria was used in a challenge experiment in mashed potato.

[3] = system: Listeria monocytogenes strains; assay: Challenge test in mashed potato, L. monocytogenes cocktail; conditions: for Microbial growth: mashed potato pH 5.6, 0.5%, 12° C.
Protocol: as §8
To confirm the effectiveness of the two sources of sodium acetate against Listeria monocytogenes strains, another challenge experiment in mashed potato was performed.

[4] = system: Cocktail (L. monocytogenes, Bacillus cereus, Escherichia coli, S. typhimurium); assay: Challenge test in BHI broth, bacterial cocktail; conditions: for Bacterial growth (optical density 550 nm after 12 days): pH 5.6, 12° C.
Protocol: as §1, §2, §3, §4, §5, §6, §7
An additional challenge test was carried out on the bacterial cocktail strains of Listeria monocytogenes, Escheriachia coli, Bacillus cereus, and Salmonella typhimurium.

Listeria monocytogenes = assay: Challenge test in BHI broth, single strain; conditions: for Bacterial growth (optical density 550 nm after 12 days): pH 5.6, 12° C.
Protocol: as §1, §2, §3, §4, §5, §6, §7

Salmonella typhimurium = assay: Challenge test in BHI broth, single strain; conditions: for Bacterial growth (optical density 550 nm after 12 days): pH 5.6, 12° C.
Protocol: as §1, §2, §3, §4, §5, §6, §7

Bacillus cereus = assay: Challenge test in BHI broth, single strain; conditions: for Bacterial growth (optical density 550 nm after 12 days): pH 5.6, 12° C.
Protocol: as §1, §2, §3, §4, §5, §6, §7

Escherichia coli = assay: Challenge test in BHI broth, single strain; conditions: for Bacterial growth (optical density 550 nm after 12 days): pH 5.6, 12° C.
Protocol: as §1, §2, §3, §4, §5, §6, §7

[5] = 0.25% sodium acetate, pH 5.6, 30° C.
[6] = 0.25% sodium acetate, pH 7.0, 30° C.
[7] = 0.5% sodium acetate, pH 5.6, 30° C.
[8] = 0.5% sodium acetate, pH 7.0, 30° C.

CC(=O)[O-].[Na+] [C, sodium acetate]
Inhibition of the challenge bacteria (in words) [1]: neither commercial sodium acetate nor the fermentate inhibit
Microbial growth ([2]; day 0): 4.6 Log10 cfu/g
Microbial growth ([2]; day 2): 4.6 Log10 cfu/g
Microbial growth ([2]; day 5): 4.5 Log10 cfu/g
Microbial growth ([2]; day 7): 4.5 Log10 cfu/g
Microbial growth ([2]; day 9): 4.1 Log10 cfu/g
Inhibitory effectiveness on growth of Gram-negative cocktail (in words) ([2]; mashed potato): inhibitory effectiveness
Microbial growth ([3]; day 0): 3.1 Log10 cfu/g
Microbial growth ([3]; day 2): 4.4 Log10 cfu/g
Microbial growth ([3]; day 5): 4.3 Log10 cfu/g
Microbial growth ([3]; day 7): 4.9 Log10 cfu/g
Microbial growth ([3]; day 14): 7.5 Log10 cfu/g
Delay of growth of Listeria monocytogenes (in words) ([3]; mashed potato, 14 days of incubation at 12° C.): unable to delay the growth of this organism for more than a week
Bacterial growth (optical density 550 nm after 12 days) ([4]; 0.25% sodium acetate): 0.287
Bacterial growth (optical density 550 nm after 12 days) ([4]; 0.5% sodium acetate): 0.266
Inhibition of the bacterial cocktail (in words) ([4]; pH 5.6 and at 2° C. (so in the source), both concentrations): failed to inhibit
Bacterial growth (optical density 550 nm after 12 days) (Listeria monocytogenes; 0.25% sodium acetate): 0.212
Bacterial growth (optical density 550 nm after 24 hrs) (Listeria monocytogenes; [5]): 0.216
Bacterial growth (optical density 550 nm after 24 hrs) (Listeria monocytogenes; [6]): 0.429
Bacterial growth (optical density 550 nm after 12 days) (Listeria monocytogenes; 0.5% sodium acetate): 0.220
Bacterial growth (optical density 550 nm after 24 hrs) (Listeria monocytogenes; [7]): 0.063
Bacterial growth (optical density 550 nm after 24 hrs) (Listeria monocytogenes; [8]): 0.399
Bacterial growth (optical density 550 nm after 12 days) (Salmonella typhimurium; 0.25% sodium acetate): 0.010
Bacterial growth (optical density 550 nm after 24 hrs) (Salmonella typhimurium; [5]): 0.089
Bacterial growth (optical density 550 nm after 24 hrs) (Salmonella typhimurium; [6]): 0.645
Bacterial growth (optical density 550 nm after 12 days) (Salmonella typhimurium; 0.5% sodium acetate): 0.013
Bacterial growth (optical density 550 nm after 24 hrs) (Salmonella typhimurium; [7]): 0.020
Bacterial growth (optical density 550 nm after 24 hrs) (Salmonella typhimurium; [8]): 0.600
Inhibitory effect on growth (in words) (Salmonella typhimurium; pH 5.6 and below): exhibited inhibitory effects
Bacterial growth (optical density 550 nm after 12 days) (Bacillus cereus; 0.25% sodium acetate): 0.017
Bacterial growth (optical density 550 nm after 24 hrs) (Bacillus cereus; [5]): 0.068
Bacterial growth (optical density 550 nm after 24 hrs) (Bacillus cereus; [6]): 0.325
Bacterial growth (optical density 550 nm after 12 days) (Bacillus cereus; 0.5% sodium acetate): 0.017
Bacterial growth (optical density 550 nm after 24 hrs) (Bacillus cereus; [7]): 0.042
Bacterial growth (optical density 550 nm after 24 hrs) (Bacillus cereus; [8]): 0.315
Inhibitory effect on growth (in words) (Bacillus cereus; pH 5.6 and below): exhibited inhibitory effects
Bacterial growth (optical density 550 nm after 12 days) (Escherichia coli; 0.25% sodium acetate): 0.017
Bacterial growth (optical density 550 nm after 24 hrs) (Escherichia coli; [5]): 0.231
Bacterial growth (optical density 550 nm after 24 hrs) (Escherichia coli; [6]): 0.589
Bacterial growth (optical density 550 nm after 12 days) (Escherichia coli; 0.5% sodium acetate): 0.013
Bacterial growth (optical density 550 nm after 24 hrs) (Escherichia coli; [7]): 0.099
Bacterial growth (optical density 550 nm after 24 hrs) (Escherichia coli; [8]): 0.587
Inhibitory effect on growth (in words) (Escherichia coli; pH 5.6 and below): exhibited inhibitory effects
